Assay results: patent US8685392B2 (priority 2009, dated 2014)

Columns and labels:
[1] = test system: gliadin-degrading enzymes of strain WSA-2B
Procedure: (§1) Saliva ion buffer contains 50 mM KCl, 1 mM K2HPO4, 1 mM CaCl2 and 0.1 mM MgCl2 (pH 6.5). Cells were preincubated with the inhibitors for 15 min at room temperature prior to the addition of substrate. Z-YPQ-pNA hydrolysis was followed at 405 nm. Initial velocities of the enzymatic reaction are plotted.
(§2) Inhibitory effects were monitored toward the capacity to hydrolyze Z-YPQ-pNA. The initial rate of substrate proteolysis (Vi) was determined during the first 30 minute incubation time interval.

[2] = test system: gliadin-degrading enzymes of strain WSA-8
Procedure: as §1, §2

With `Cl.NCCc1ccc(S(=O)(=O)F)cc1` [AEBSF, 4-(2-Aminoethyl) benzenesulfonyl fluoride hydrochloride] the “inhibition of Z-YPQ-pNA hydrolysis (initial rate Vi) in WSA-2B” value [1] was 97% and the “inhibition of Z-YPQ-pNA hydrolysis (initial rate Vi) in WSA-8” value [2] was 78%.
